Reference: US20040034003A1, “7-Hydroxy-16alpha-fluoro-5-androsten-17-ones and 7-hydroxy-16alpha-fluoro-5-androstan-17-ones and derivatives thereof” (priority 2002, published 2004)
“And” between values parts separate entries of the source, which are not always exact repeats. Equal entries are not always repeated.

Tested on: TPA-Induced DNA Synthesis in Mouse Epidermis
Assay: TPA-induced DNA synthesis in mouse epidermis: [3H]thymidine incorporation and epidermal DNA content of a 2x2 cm2 skin section
Assay type: in vivo
Details: for μg DNA / corrected cpm / cpm/μg DNA / cpm: individual mouse; for lowest effective dose which suppresses TPA-stimulated epidermal [3H]thymidine incorporation and DNA content: mice
Protocol: Epidermal hypeplasia is determined by measuring the stimulation in [^3H] thymidine incorporation as well as epidermal DNA content of a 2×2 cm^2 section of skin twenty hours after TPA application.
In prior experiments, 16α-fluoro-5-androsten-17-one was administered in escalating doses by the oral subcutaneous, intraperitoneal, and buccal routes of administration, and the effect on TPA-stimulated epidermal [^3H] thymidine incorporation and epidermal DNA content was determined.
In this experiment, the effect of treating mice subcutaneously (s.c.) with suspensions of 7α-hydroxy-16α-flouro-5-androsten-17-one and suspensions of 16aflouro-5-androsten-17-one were investigated.
Variousl6α-flouro-5-androsten-17 one suspensions (Q) were prepared. The vehicle was 95% saline (0.9% NaCl) and 5% Emulphor. For the 5 mg/kg s.c. suspension, 25.3 mg was suspended in 10 mL of Emulphor-saline. The other suspensions were made by diluting the 5 mg/kg suspension. For the 2.5 mg/kg suspension, 1 mL of 5mg/kg s.c. suspension was diluted to a final volume of 2mL, for the 1 m/kg suspension 1 mL of the 5 mg/kg suspension was made to a total of 5 mL, while for the 0.125 mg/kg suspension, 0.5 mL of the 5 mg/kg suspension was made to a final volume of 20 mL. Magnetic stir bars were added to the suspensions which were kept on a magnetic stirrer.
7α-hydroxy-16α-flouro-5-androsten-17-one was prepared as described hereinabove. For the 5 mg/kg s.c. suspension, 16.3 mg was suspended in 6.5 mL of Emulphor-saline. The other suspensions were made by diluting the 5 mg/kg suspension. For the 2.5 mg/kg, 1 mL of 5 mg/kg suspension was diluted to a final volume of 2 mL, for the 1 mg/kg suspension 1 mL of the 5 mg/kg suspension was made to total 5 mL, while for the 0.125 mg/kg suspension, 0.5 mL of the 5 mg/kg suspension was made up to final volume of 20 mL. Magnetic stir bars were added to the suspensions and the suspensions were kept on a magnetic stirrer.
Female CD-1 mice were obtained from Charles River Laboratories, Wilmington, Mass. at 44-46 days of age. The mice were housed two to three per cage in plastic shoebox cages on Alphacel bedding with 12 hours of alternating light and dark in the CAF Animal Facility, 6th floor, Pharmacy Building. The mice had ad libitum access-to Purina 5015 chow and acidified tap water (pH≦2.6). The mice were allowed to acclimate to the facility for one week prior to use in an experiment. Three days after obtaining the mice, the mice were shaved and weighed. Only those mice showing no hair regrowth were used in the experiment.
Four days after the mice were shaved, they were treated as follows:
The mice were sacrificed 20 hours after treatment by an overdose of CO2. Twenty minutes prior to sacrifice, the mice were injected with 60 μCi of [^3H]thymidine (Amersham Batch 297). The mice were treated with a depilatory to remove any residual hair. A 2×2 cm^2 piece of skin was excised, placed in ice water for 30 seconds, then in 55° C. water for 30 seconds, then ice water again for 30 seconds. The epidermis was scrapped off using a scalpel and the scrapings were placed into ice cold 0.4N TCA (trichloroacetic acid). The scrapings were homogenized using a Tekmar Tissumizer (80% power for 30 seconds). The homogenates were centrifuged for 20 minutes at 3,000×g. The precipitates were washed 3× with 0.2N TCA, and 2× with absolute ethanol. The DNA in each sample was hydrolyzed with 0.5N TCA for 30 minuts at 90°. The tubes were centrifuged for 20 minutes at 3000×g. A 0.2 mL aliquot of each hydrolysate was counted in a LKB Rackbeta scintillation counter using Scintiverse II BD as the counting medium. DNA content was determined by the Burton diphenylamine assay.
Various suspensions were prepared of 16α-fluoro-5-androsten-17-one as follows. The vehicle was 95% saline (0.9% NaCl) and 5% Emulphor. For the 5 mg/kg s.c. suspension, 27.8 mg was suspended in 11.4 mL of Emulphor-saline. The other suspensions were made by diluting the 5 mg/kg suspension. […]

[1] = Example 4, 0.125 mg/kg s.c. 1 h before topical TPA 2 μg, 20 h, Burton diphenylamine assay, 0.125 mg/kg
[2] = Example 4, 0.125 mg/kg s.c. 1 h before topical TPA 2 μg, 20 h
[3] = Example 4, 0.125 mg/kg s.c. 1 h before topical TPA 2 μg, 20 h, 0.125 mg/kg
[4] = Example 4, 0.125 mg/kg s.c. 1 h before topical TPA 2 μg, female CD-1 mice, 20 h after treatment, 0.125 mg/kg
[5] = Example 4, 1 mg/kg s.c. 1 h before topical TPA 2 μg, 20 h
[6] = Example 4, 1 mg/kg s.c. 1 h before topical TPA 2 μg, 20 h, 1 mg/kg
[7] = Example 4, 2.5 mg/kg s.c. 1 h before topical TPA 2 μg, 20 h
[8] = Example 4, 2.5 mg/kg s.c. 1 h before topical TPA 2 μg, 20 h, 2.5 mg/kg
[9] = Example 4, 5 mg/kg s.c. 1 h before topical TPA 2 μg, 20 h
[10] = Example 4, 5 mg/kg s.c. 1 h before topical TPA 2 μg, 20 h, 5 mg/kg
[11] = Example 5, 1 mg/kg s.c. 1 h before topical TPA 2 μg, 20 h, listed as Fluasterone, 1 mg/kg
[12] = Example 5, 2.5 mg/kg s.c. 1 h before topical TPA 2 μg, 20 h, listed as Fluasterone, 2.5 mg/kg
[13] = Example 5, 5 mg/kg s.c. 1 h before topical TPA 2 μg, 20 h, listed as Fluasterone, 5 mg/kg
[14] = prior experiments, escalating doses, oral, subcutaneous, intraperitoneal and buccal routes

## C[C@]12CCCCC1=C[C@@H](O)[C@@H]1[C@@H]2CC[C@]2(C)C(=O)[C@H](F)C[C@@H]12 [7α-hydroxy-16α-fluoro-5-androsten-17-one, 16α-fluoro-7α-hydroxy-5-androsten-17-one]
[1]
  μg DNA: 16.8 µg and 15.4 µg
[2]
  cpm/μg DNA (group average ±): 335.1 ± 64.4 cpm/μg DNA
[3]
  corrected cpm: 6,394.0 cpm and 4,458.0 cpm
  cpm/μg DNA: 380.6 cpm/μg DNA and 289.5 cpm/μg DNA
[4]
  cpm: 6,419.0 cpm and 4,483.0 cpm
[5]
  cpm/μg DNA (group average ±): 245.5 ± 44.1 cpm/μg DNA
[6]
  corrected cpm: 3,021.0 cpm and 3,623.0 cpm
  cpm: 3,046.0 cpm and 3,648.0 cpm
  cpm/μg DNA: 214.3 cpm/μg DNA and 276.6 cpm/μg DNA
  μg DNA: 14.1 µg and 13.1 µg
[7]
  cpm/μg DNA (group average ±): 350.2 ± 32.5 cpm/μg DNA
[8]
  corrected cpm: 4,478.0 cpm and 3,698.0 cpm
  cpm: 4,503.0 cpm and 3,723.0. cpm
  cpm/μg DNA: 373.2 cpm/μg DNA and 327.3 cpm/μg DNA
  μg DNA: 12.0 µg and 11.3 µg
[9]
  cpm/μg DNA (group average ±): 360.3 ± 9.3 cpm/μg DNA
  μg DNA: 11.9 µg
[10]
  corrected cpm: 4,366.0 cpm and 4,209.0 cpm
  cpm: 4,391.0 cpm and 4,234.0 cpm
  cpm/μg DNA: 366.9 cpm/μg DNA and 353.7 cpm/μg DNA
Example 4, s.c., dose range 0.125-5 mg/kg
  effect on [3H]thymidine incorporation and epidermal DNA content (in words): inhibited [^3H] thymidine incorporation and epidermal DNA content over the dose range with no apparent nadir or over stimulation

## C[C@]12CCCCC1=CC[C@@H]1[C@@H]2CC[C@]2(C)C(=O)[C@H](F)C[C@@H]12 [Q, 16α-fluoro-5-androsten-17-one, reference compound]
[1]
  μg DNA: 10.0 µg and 9.1 µg
[2]
  cpm/μg DNA (group average ±): 441.5 ± 133.4 cpm/μg DNA
[3]
  corrected cpm: 3,471.0 cpm and 4,876.0 cpm
  cpm/μg DNA: 347.1 cpm/μg DNA and 535.8 cpm/μg DNA
[4]
  cpm: 3,496.0 cpm and 4,901.0 cpm
[5]
  cpm/μg DNA (group average ±): 236.4 ± 46.5 cpm/μg DNA
[6]
  corrected cpm: 1,811.0 cpm and 2,750.1 cpm
  cpm: 1,836.0 cpm and 2,775.1 cpm
  cpm/μg DNA: 203.5 cpm/μg DNA and 269.6 cpm/μg DNA
  μg DNA: 8.9 µg and 10.2 µg
[7]
  cpm/μg DNA (group average ±): 173.3 ± 11.3 cpm/μg DNA
[8]
  corrected cpm: 1,251.0 cpm and 1,207.0 cpm
  cpm: 1,276.0 cpm and 1,232.0 cpm
  cpm/μg DNA: 181.3 cpm/μg DNA and 165.3 cpm/μg DNA
  μg DNA: 6.9 µg and 7.3 µg
[9]
  cpm/μg DNA (group average ±): 1105.5 ± 28.4 cpm/μg DNA
[10]
  corrected cpm: 8,249.0 cpm and 10,018.0 cpm
  cpm: 8,274.0 cpm and 10,043.0 cpm
  cpm/μg DNA: 1,085.4 cpm/μg DNA and 1,125.6 cpm/μg DNA
  μg DNA: 7.6 µg and 8.9 µg
Example 4, s.c.
  dose producing a nadir in [3H]thymidine incorporation: 2.5 mg/kg
  dose producing an overstimulation of [3H]thymidine incorporation: 5 mg/kg
Example 5, 1 mg/kg s.c. 1 h before topical TPA 2 μg, 20 h
  cpm/μg DNA (group average ±): 170.3 ± 21.7 cpm/μg DNA
[11]
  corrected cpm: 2,691.0 cpm and 2,741.0 cpm
  cpm/μg DNA: 185.6 cpm/μg DNA and 154.9 cpm/μg DNA
  μg DNA: 14.5 µg and 17.7 µg
Example 5, 1 mg/kg s.c. 1 h before topical TPA 2 μg, female CD-1 mice, 20 h, listed as Fluasterone, 1 mg/kg
  cpm: 2,717.0 cpm and 2,767.0 cpm
Example 5, 2.5 mg/kg s.c. 1 h before topical TPA 2 μg, 20 h
  cpm/μg DNA (group average ±): 81.4 ± 12.0 cpm/μg DNA
[12]
  corrected cpm: 496.0 cpm and 566.0 cpm
  cpm: 522.0 cpm and 592.0 cpm
  cpm/μg DNA: 72.9 cpm/μg DNA and 89.8 cpm/μg DNA
  μg DNA: 6.8 µg and 6.3 µg
Example 5, 5 mg/kg s.c. 1 h before topical TPA 2 μg, 20 h
  cpm/μg DNA (group average ±): 258.8 ± 12.0 cpm/μg DNA
[13]
  corrected cpm: 2,192.0 cpm and 1,777.0 cpm
  cpm: 2,218.0 cpm and 1,803.0 cpm
  cpm/μg DNA: 267.3 cpm/μg DNA and 250.3 cpm/μg DNA
  μg DNA: 8.2 µg and 7.1 µg
Example 5, s.c.
  dose producing a nadir in [3H]thymidine incorporation: 2.5 mg/kg
  dose producing an overstimulation of [3H]thymidine incorporation: 5 mg/kg
Prior experiments, buccal route
  lowest effective dose which suppresses TPA-stimulated epidermal [3H]thymidine incorporation and DNA content: 2.5 to 5 mg/kg
[14]
  dose response for [3H]thymidine incorporation (in words): U-shaped dose response
  epidermal DNA content as the dose increased (in words): remained suppressed
Prior experiments, intraperitoneal route
  lowest effective dose which suppresses TPA-stimulated epidermal [3H]thymidine incorporation and DNA content: 5 mg/kg
Prior experiments, oral route
  lowest effective dose which suppresses TPA-stimulated epidermal [3H]thymidine incorporation and DNA content: 200 mg/kg
Prior experiments, subcutaneous route
  lowest effective dose which suppresses TPA-stimulated epidermal [3H]thymidine incorporation and DNA content: 2.5 mg/kg
Prior finding
  TPA-induced epidermal hyperplasia in mice (in words): inhibits
